Columns and labels:
[1] = PAMPA permeability, heart polar lipid extract (HPLE) membrane; conditions: for Mean logPe / Mean Pe: Heart Polar lipid extract membrane, n=3; for Papp at 4 h, 100 μM: bovine, PAMPA, pH 7.4; for Mean Pe: * = not detected at acceptor side, value calculated from limit of detection
[2] = PAMPA permeability, heart total lipid extract (HTLE) membrane; conditions: for Mean logPe / Papp at 4 h, 100 μM / Mean Pe: Heart total lipid extract membrane, n=3; for Papp at 4 h, 100 μM: bovine, PAMPA; for PAMPA permeability on HTLE: pH 7.4, 4 h, 37 °C, in words (PCA biplot, Figure 11B)
[3] = PAMPA permeability, liver total lipid extract (LTLE) membrane; conditions: for Mean logPe / Mean Pe: Liver total lipid extract membrane, n=3; for Papp at 4 h, 100 μM: bovine, PAMPA, pH 7.4; for Mean Pe: * = not detected at acceptor side, value calculated from limit of detection
[4] = PAMPA permeability, liver polar lipid extract (LPLE) membrane; conditions: for Papp at 4 h, 100 μM: bovine, PAMPA
[5] = PAMPA permeability, brain total lipid extract (BTLE) membrane; conditions: for Mean logPe / Mean Pe: Brain total lipid extract membrane, n=3; for Papp at 4 h, 100 μM: pig, PAMPA, pH 7.4; for Mean Pe: * = not detected at acceptor side, value calculated from limit of detection
[6] = PAMPA permeability, brain polar lipid extract (BPLE) membrane; conditions: for Mean logPe / Mean Pe: Brain Polar lipid extract membrane, n=3; for Papp at 4 h, 100 μM: pig, PAMPA, pH 7.4; for Mean Pe: * = not detected at acceptor side, value calculated from limit of detection
[7] = pH 7.4, Mean Pe, * = not detected at acceptor side, value calculated from limit of detection
[8] = pH 7.4, Mean Pe, n=3, * = not detected at acceptor side, value calculated from limit of detection
[9] = * = not detected at acceptor side, value calculated from limit of detection
[10] = n=3, * = not detected at acceptor side, value calculated from limit of detection

Mean logPe [1]	Papp at 4 h, 100 μM [1] [×10⁻⁶ cm/s]	Mean logPe [2]	Papp at 4 h, 100 μM [2, 7] [×10⁻⁶ cm/s]	Mean logPe [3]	Papp at 4 h, 100 μM [3] [×10⁻⁶ cm/s]	Papp at 4 h, 100 μM [4, 8] [×10⁻⁶ cm/s]	Mean logPe ([4]; n=3)	Mean logPe [5]	Papp at 4 h, 100 μM [5] [×10⁻⁶ cm/s]	Mean logPe [6]	Papp at 4 h, 100 μM [6] [×10⁻⁶ cm/s]	Mean Pe [1]	Mean Pe [2, 9]	Papp at 4 h, 100 μM ([2]; pH 7.4, Mean logPe) [×10⁻⁶ cm/s]	Mean Pe [3]	Mean Pe [5]	Mean Pe [6]	Molecule	also measured
–	< 0.741	–	–	< -6.12	–	–	< -6.12	< -6.13	–	< -6.12	–	< 0,73* 10-6 cm/s	< 0,76* 10-6 cm/s	< 0.759	< 0,76* 10-6 cm/s	< 0,73* 10-6 cm/s	< 0,76* 10-6 cm/s	N=C(N)c1ccc(OCCCOc2ccc(C(=N)N)cc2)cc1 [propamidine]	Mean Pe [4, 10]: < 0,76* 10-6 cm/s
–	–	–	–	–	–	2.23	–	–	–	–	–	< 0,98* 10-6 cm/s	< 0,87* 10-6 cm/s	–	–	< 0,86* 10-6 cm/s	< 0,86* 10-6 cm/s	CCOC(=O)[C@H](CCc1ccccc1)N[C@@H](C)C(=O)N1[C@H](C(=O)O)C[C@@H]2CCC[C@@H]21 [ramipril]	–
–	–	–	1.92	-4.79	16.3	10.3	-4.99	-5.45	3.57	-5.64	2.35	–	–	2.88	–	–	–	CN1C(C(=O)Nc2ccccn2)=C(O)c2ccccc2S1(=O)=O [piroxicam]	PAMPA permeability on HTLE [2]: low
–	< 0.468	–	–	< -6.32	–	–	< -6.32	< -6.33	–	< -6.32	–	< 0,46* 10-6 cm/s	< 0,48* 10-6 cm/s	< 0.479	< 0,48* 10-6 cm/s	< 0,46* 10-6 cm/s	< 0,48* 10-6 cm/s	CC(C)c1nc(N(C)S(C)(=O)=O)nc(-c2ccc(F)cc2)c1/C=C/[C@@H](O)C[C@@H](O)CC(=O)O [rosuvastatin]	Mean Pe [4, 10]: < 0,48* 10-6 cm/s
-4.59	25.9	-4.73	18.8	-4.14	72.9	38.6	-4.44	-4.61	24.4	-4.67	21.3	–	–	–	–	–	–	NC(=O)Cc1cccc(C(=O)c2ccccc2)c1N [nepafenac]	–

More lines, now with the values behind:

Molecule	Mean logPe [1]	Papp at 4 h, 100 μM [1] [×10⁻⁶ cm/s]	Mean logPe [2]	Papp at 4 h, 100 μM [2, 7] [×10⁻⁶ cm/s]	Mean logPe [3]	Papp at 4 h, 100 μM [3] [×10⁻⁶ cm/s]	Papp at 4 h, 100 μM [4, 8] [×10⁻⁶ cm/s]	Mean logPe ([4]; n=3)	Mean logPe [5]	Papp at 4 h, 100 μM [5] [×10⁻⁶ cm/s]	Mean logPe [6]	Papp at 4 h, 100 μM [6] [×10⁻⁶ cm/s]	Mean Pe [1]	Mean Pe [2, 9]	Papp at 4 h, 100 μM ([2]; pH 7.4, Mean logPe) [×10⁻⁶ cm/s]	Mean Pe [3]	Mean Pe [5]	Mean Pe [6]	also measured
Cn1c(=O)c2c(ncn2C)n(C)c1=O [caffeine]	-5.39	4.19	-5.59	2.62	-4.7	20.3	11.3	-4.95	-5.71	1.96	-5.53	2.97	–	–	–	–	–	–	PAMPA permeability on HTLE [2]: low
ondansetron	-4.86	–	-5.01	–	–	–	–	-4.59	-4.63	–	-4.71	–	13.69 10-6 cm/s	9.85 10-6 cm/s	–	57.25 10-6 cm/s	23.49 10-6 cm/s	19.60 10-6 cm/s	Mean Pe [4, 10]: 25.69 10-6 cm/s
COCCc1ccc(OCC(O)CNC(C)C)cc1 (centres unmarked) [metoprolol]	-4.96	–	-5.04	–	-4.4	40.1	13.2	–	–	–	–	–	–	–	–	–	–	–	Papp at 4 h, 100 μM ([4]; pH 7.4, Mean logPe, n=3): 19.5 ×10⁻⁶ cm/s
Nc1c(Br)cc(Br)cc1CN[C@H]1CC[C@H](O)CC1 [ambroxol]	-4.21	61.8	-4.40	–	-4.27	54	54.5	-4.26	–	–	–	–	–	–	–	–	–	–	–
CC(CCc1ccccc1)NCC(O)c1ccc(O)c(C(N)=O)c1 (centres unmarked) [labetalol]	-5.08	8.38	-5.27	5.37	-4.42	38	19	-4.72	-4.83	15.1	-4.65	22.2	–	–	–	–	–	–	–
CC1Cc2ccccc2N1NC(=O)c1ccc(Cl)c(S(N)(=O)=O)c1 (centres unmarked) [indapamide]	-5.28	5.37	-5.69	2.04	-4.61	24.5	16.9	-4.77	-5.29	5.22	-5.19	6.6	–	–	–	–	–	–	–
CCn1cc(C(=O)O)c(=O)c2cc(F)c(N3CCNCC3)nc21 [enoxacin]	-5.44	3.7	–	0.4	-5.37	4.25	3.49	-5.46	-5.36	4.48	-5.12	7.58	–	–	0.589	–	–	–	–
CO/N=C(\C(=O)N[C@@H]1C(=O)N2C(C(=O)O)=C(COC(N)=O)CS[C@H]12)c1ccco1 [cefuroxime]	< -5.89	–	-5.91	1.25	< -5.94	–	7.1	-5.17	-5.89	1.28	-5.94	1.14	< 1,28* 10-6 cm/s	–	–	< 1,14* 10-6 cm/s	–	–	–

From publication PMC10053807, “Natural Lipid Extracts as an Artificial Membrane for Drug Permeability Assay: In Vitro and In Silico Characterization” (Pharmaceutics, 2023)
